Measurements as given in patent publication US20130131161A1, “METHODS AND COMPOSITIONS FOR CARDIOVASCULAR DISEASES AND CONDITIONS” (priority 2009, published 2013).

Tested on: eNOS
Assay: eNOS protein abundance in HUVECs by immunochemical methods (Example 2)
Assay type: cell-based, human
Settings: for Fold difference eNOS protein abundance (mean ± sd): (LA-419 5 μM)/(control); for eNOS protein abundance Fold difference (mean ± sd): LA-419 5 μM / control; for eNOS protein abundance Net increase (mean ± sd): avg 5 μM LA-419 − avg Cntl
From the text: eNOS Activity and Protein Abundance Measurements
Using immunochemical methods, there was no change in any condition in relation to eNOS protein abundance, Tables ss-L1.

Question: For `CC(=O)SC1COC2C(O[N+](=O)[O-])COC12` (stereo not drawn) [LA-419, S-(6-Nitro-oxi-hexahydro-furo[3,2-b]furan-3-1-il)thioacetate], which “Fold difference eNOS protein abundance (mean ± sd)” value (Intron 4 b/a, a/a, c/c, n=14) is on record?
Answer: 1.00 (0.09)

Question: And the “Fold difference eNOS protein abundance (mean ± sd)” value (Intron 4 b/a, n=10)?
Answer: 1.01 (0.10)

Question: And the “Fold difference eNOS protein abundance (mean ± sd)” value (Intron 4 b/b, b/a, c/c, n=42)?
Answer: 0.99 (0.08)

Question: And the “Fold difference eNOS protein abundance (mean ± sd)” value (Intron 4 b/b, n=31)?
Answer: 0.98 (0.07)

Question: And the “Fold difference eNOS protein abundance (mean ± sd)” value (Intron 4 c/c, n=1)?
Answer: 0.94 (0)

Question: What about the “Fold difference eNOS protein abundance (mean ± sd)” value (T786C T/T & T/C, n=45) of the same compound?
Answer: 0.99 (0.08)

Question: And the “Fold difference eNOS protein abundance (mean ± sd)” value (T-786C C/C, n=4)?
Answer: 0.93 (0.06)

Question: And the “Fold difference eNOS protein abundance (mean ± sd)” value (T-786C T/C & C/C, n=27)?
Answer: 0.99 (0.09)

Question: And the “Fold difference eNOS protein abundance (mean ± sd)” value (T-786C T/C, n=23)?
Answer: 1.00 (0.09)

Question: And the “Fold difference eNOS protein abundance (mean ± sd)” value (T-786C T/T, n=22)?
Answer: 0.99 (0.06)

Question: And the “eNOS protein abundance Fold difference (mean ± sd)” value (Caucasian, G894T + T-786C variant G/G + T/C (n=3), Table K)?
Answer: 1.10 (0.05)

Question: And the “eNOS protein abundance Fold difference (mean ± sd)” value (Caucasian, G894T + T-786C variant G/G + T/T (n=7), reference group, Table K)?
Answer: 1.04 (0.04)

Question: And the “eNOS protein abundance Fold difference (mean ± sd)” value (Caucasian, G894T + T-786C variant G/T + T/C (n=10), Table K)?
Answer: 1.00 (0.08)

Question: And the “eNOS protein abundance Fold difference (mean ± sd)” value (Caucasian, G894T + T-786C variant G/T + T/T (n=3), Table K)?
Answer: 1.02 (0.09)

Question: And the “eNOS protein abundance Fold difference (mean ± sd)” value (Caucasian, G894T + T-786C variant T/T + T/C (n=2), Table K)?
Answer: 1.04 (0.01)

Question: What about the “eNOS protein abundance Fold difference (mean ± sd)” value (Caucasian, G894T variant G/G (n=10), major allele homozygotes, Table J) of the same compound?
Answer: 1.06 (0.05)

Question: What about the “eNOS protein abundance Fold difference (mean ± sd)” value (Caucasian, G894T variant G/G (n=10), Table I) of the same compound?
Answer: 1.06 (0.05)

Question: And the “eNOS protein abundance Fold difference (mean ± sd)” value (Caucasian, G894T variant G/T & T/T (n=16), minor allele carriers, Table J)?
Answer: 1.01 (0.07)

Question: What about the “eNOS protein abundance Fold difference (mean ± sd)” value (Caucasian, G894T variant G/T (n=13), Table I) of the same compound?
Answer: 1.00 (0.08)

Question: What about the “eNOS protein abundance Fold difference (mean ± sd)” value (Caucasian, G894T variant T/T (n=3), Table I) of the same compound?
Answer: 1.03 (0.02)

Question: And the “eNOS protein abundance Fold difference (mean ± sd)” value (Caucasian, Genotype Combination = all minor allele carriers (n=19), Table L)?
Answer: 1.02 (0.08)

Question: What about the “eNOS protein abundance Fold difference (mean ± sd)” value (Caucasian, Genotype Reference = G/G + T/T (n=7), Table L) of the same compound?
Answer: 1.04 (0.04)

Question: What about the “eNOS protein abundance Fold difference (mean ± sd)” value (Caucasian, Intron 4 variant b/a & a/a (n=6), minor allele carriers, Table J) of the same compound?
Answer: 1.08 (0.06)

Question: And the “eNOS protein abundance Fold difference (mean ± sd)” value (Caucasian, Intron 4 variant b/a (n=5), Table I)?
Answer: 1.07 (0.06)

Question: And the “eNOS protein abundance Fold difference (mean ± sd)” value (Caucasian, Intron 4 variant b/b (n=18), major allele homozygotes, Table J)?
Answer: 1.00 (0.06)

Question: What about the “eNOS protein abundance Fold difference (mean ± sd)” value (Caucasian, Intron 4 variant b/b (n=18), Table I) of the same compound?
Answer: 1.00 (0.06)

Question: And the “eNOS protein abundance Fold difference (mean ± sd)” value (Caucasian, T-786C variant T/C & C/C (n=16), minor allele carriers, Table J)?
Answer: 1.02 (0.08)

Question: And the “eNOS protein abundance Fold difference (mean ± sd)” value (Caucasian, T-786C variant T/C (n=15), Table I)?
Answer: 1.02 (0.08)

Question: And the “eNOS protein abundance Fold difference (mean ± sd)” value (Caucasian, T-786C variant T/T (n=10), major allele homozygotes, Table J)?
Answer: 1.03 (0.06)

Question: And the “eNOS protein abundance Fold difference (mean ± sd)” value (Caucasian, T-786C variant T/T (n=10), Table I)?
Answer: 1.03 (0.06)

Question: What about the “eNOS protein abundance Fold difference (mean ± sd)” value (G894T + T-786C variant T/T + C/C (n=1), Table K) of the same compound?
Answer: 1.01 (0)

Question: What about the “eNOS protein abundance Fold difference (mean ± sd)” value (Intron 4 variant a/a (n=1), Table I) of the same compound?
Answer: 1.14 (0)

Question: And the “eNOS protein abundance Fold difference (mean ± sd)” value (T-786C variant C/C (n=1), Table I)?
Answer: 1.01 (0)

Question: And the eNOS protein abundance (any condition, Tables ss-L1)?
Answer: no change

Question: And the “eNOS protein abundance Net increase (mean ± sd)” value (Combination of all G894T + T786C genotypes but G/G + T/T, n=31)?
Answer: −0.12 (0.53) pg/ug

Question: What about the “eNOS protein abundance Net increase (mean ± sd)” value (G894T + T786C G/G + T/C, n=8) of the same compound?
Answer: −0.17 (0.77) pg/ug

Question: And the “eNOS protein abundance Net increase (mean ± sd)” value (G894T + T786C G/G + T/T, n=18)?
Answer: −0.09 (0.35) pg/ug

Question: What about the “eNOS protein abundance Net increase (mean ± sd)” value (G894T + T786C G/T + C/C, n=1) of the same compound?
Answer: −0.99 (0) pg/ug

Question: What about the “eNOS protein abundance Net increase (mean ± sd)” value (G894T + T786C G/T + T/C, n=13) of the same compound?
Answer: −0.03 (0.42) pg/ug

Question: And the “eNOS protein abundance Net increase (mean ± sd)” value (G894T + T786C G/T + T/T, n=4)?
Answer: −0.03 (0.46) pg/ug

Question: And the “eNOS protein abundance Net increase (mean ± sd)” value (G894T + T786C T/T + C/C, n=3)?
Answer: −0.41 (0.46) pg/ug

Question: And the “eNOS protein abundance Net increase (mean ± sd)” value (G894T + T786C T/T + T/C, n=2)?
Answer: 0.17 (0.02) pg/ug

Question: And the “eNOS protein abundance Net increase (mean ± sd)” value (G894T G/G, n=26)?
Answer: −0.12 (0.50) pg/ug

Question: What about the “eNOS protein abundance Net increase (mean ± sd)” value (G894T G/T & T/T, n=23) of the same compound?
Answer: −0.10 (0.45) pg/ug

Question: What about the “eNOS protein abundance Net increase (mean ± sd)” value (G894T G/T, n=18) of the same compound?
Answer: −0.08 (0.46) pg/ug

Question: What about the “eNOS protein abundance Net increase (mean ± sd)” value (G894T T/T, n=5) of the same compound?
Answer: −0.18 (0.45) pg/ug

Question: And the “eNOS protein abundance Net increase (mean ± sd)” value (Intron 4 a/a, n=3)?
Answer: −0.05 (0.69) pg/ug

Question: What about the “eNOS protein abundance Net increase (mean ± sd)” value (Intron 4 b/a, a/a, c/c, n=14) of the same compound?
Answer: −0.05 (0.55) pg/ug

Question: And the “eNOS protein abundance Net increase (mean ± sd)” value (Intron 4 b/a, n=10)?
Answer: −0.02 (0.56) pg/ug

Question: And the “eNOS protein abundance Net increase (mean ± sd)” value (Intron 4 b/b, n=31)?
Answer: −0.14 (0.45) pg/ug

Question: What about the “eNOS protein abundance Net increase (mean ± sd)” value (Intron 4 c/c, n=1) of the same compound?
Answer: −0.44 (0) pg/ug

Question: What about the “eNOS protein abundance Net increase (mean ± sd)” value (T786C C/C, n=4) of the same compound?
Answer: −0.55 (0.47) pg/ug

Question: And the “eNOS protein abundance Net increase (mean ± sd)” value (T786C T/C & C/C, n=27)?
Answer: −0.13 (0.55) pg/ug

Question: And the “eNOS protein abundance Net increase (mean ± sd)” value (T786C T/C, n=23)?
Answer: −0.06 (0.54) pg/ug

Question: What about the “eNOS protein abundance Net increase (mean ± sd)” value (T786C T/T, n=22) of the same compound?
Answer: −0.08 (0.36) pg/ug
